What was measured:
MCF-10A = assay: Fluorescent HA probe binding by flow cytometry (FACS); assay type: cell-based, human; conditions: Table 1, HA probe binding/uptake
Description: (§1) Simultaneous profiling of cell surface markers and HA binding/uptake required the establishment of a sensitive multiplexed detection method, which could detect both the cell surface receptors and the binding/uptake of ligand (HA). We utilized fluorescence-activated cell sorting (FACS) and established protocols for minimum decoration of cells by antibodies and HA, maximum detection sensitivity at the cell surface, and retained viability/functionality during and after sort. Fluorescent HA probes and antibodies were synthesized and characterized in a panel of human breast cancer cell lines (MDA-MB-231, SUM1315MO2, HS-578T, MDA-MB-468, HCC-1569, BT-20, MCF-10A, S1, T4-2, MCF-7, BT474, SK-BR3, AU565, MDA-MB-361, D920, SK3 [RHAMM−/− and CD44−/− were used as negative controls], and 10T½ [RHAMM+/+ were used as positive controls]). In brief, soluble HA (280,000 dalton) was linked to hydrazide-activated fluorochromes and monoclonal antibodies were directly conjugated to tetrafluorophenyl (TFP) ester activated fluorochromes (Alexa Fluor 647 and sometimes to Alexa Fluor 488) and reacted with the live cells under sterile dark conditions. Four fluorochromes were selected in a manner that provided minimal fluorescent spectral overlaps and maximal brightness for low-expressing markers, which allowed sensitive monitoring of subtle changes in marker expression and HA binding capacity in live cells. Near infrared fluorescence range was selected for HA to extend signal stability during multiple stages of characterizations (Alexa Fluor 647). […] As well, these appeared to non-specifically interact with each other and with cells, which would require extensive characterization and optimization. Therefore, we continued our study using minimally-decorated HA and antibodies by fluorochromes, as described below, and successfully profiled multiple cell surface markers.
(§2) (1) Grow cells to 50% confluence on culture flask; (2) Rinse in Ca^2+-free Hank's Buffered Saline Solution (HBSS/20 mM HEPES, pH 7.3); (3) Harvest cells with non-enzymatic HBSS-based cell dissociation solution; (4) Resuspend in cold and sterile PBS solution that contains Antibiotic, HEPES pH 7.4, Insulin, and Transferrin (PBS/additive solution); (5) Centrifuge and eliminate supernatant; (6) Wash in cold PBS/additive solution; (7) Count cells using cell counter instrument and measure viability; (8) Treat cells (in suspension) with Alexa Flour 647-HA; (9) Incubate for 45 min on ice, in dark.
(§3) For single-color HA-binding flow cytometry: (a) wash the cells, eliminate supernatant and adjust concentration of solution appropriate for flow cytometry and (b) perform live cell flow cytometry immediately.
(§4) Cells were grown to 50%-70% confluence in 75 cm^2 culture flasks in DMEM supplemented with 10% FCS at 37° C. and 5% CO2, then subcultured every 3-4 days. For HA uptake experiments, cells were grown to 50% subconfluence, which was achieved 12-20 hrs after subculture, in order to maximize RHAMM surface display. Cells were rinsed in Ca++-free Hanks Buffered Saline (HBSS) solution/20 mM HEPES, pH 7.3, and removed from the substratum by incubating in non-enzymatic HBSS-based solution (Sigma-Aldrich[H-6648]) for 2-3 min, which preserves cell surface epitopes (Veiseh M, et al, Biomacromolecules 2012, Hamilton S. R. et al, JBC, 2007). Viablity of cells was assessed using a Vi_CELL cell analyzer.
(§5) 0.2 ml of soluble HA (1% HA, MWav=280,000 dalton) was activated in 1 ml of a (0.0028 g/1 ml MES) N-(3-Dimethylaminopropyl)-N′-ethylcarbodiimide hydrochloride (EDAC) solution (Sigma-Aldrich) in 4-morpholineethanesulfonic acid (MES) (20 mM, pH 4.5, Sigma-Aldrich), and the resulting solution was reacted with 0.3 ml of A^647-HA hydrazide, tris(triethylammonium) salt (Invitrogen, 1 mg/ml in H2O) in the dark at RT. The solution was covered in aluminum foil and placed on a rocker for 12 hrs at room temperature. […]

MCF-7 = assay: as above; assay type: cell-based, human; conditions: Table 1, HA probe binding/uptake
Description: as §1, §2, §3, §4, §5

MDA-MB-231 [1] = assay: as above; assay type: cell-based, human
Description: as §1, §2, §3, §4, §5

S1 = assay: as above; assay type: cell-based, human; conditions: Table 1; SI (S1); HA probe binding/uptake
Description: as §1, §2, §3, §4, §5

SKBR-3 = assay: as above; assay type: cell-based, human
Description: as §1, §2, §3, §4, §5

T4-2 = assay: as above; assay type: cell-based, human
Description: as §1, §2, §3, §4, §5

MDA-MB-231 [2] = assay: Inhibition of HA probe uptake, confocal imaging; assay type: cell-based, human; conditions: excess HA added either during or prior to addition of HA probe
MDA-MB-231 tumor cells = assay: Extravasation efficiency in chick chorioallantoic membrane (CAM); assay type: in vivo, chicken embryos; conditions: 24 hrs after injection into CAM vein; cells pre-treated with HA for 1 hour on ice
Procedure: Fertilized chicken eggs were incubated in a rotary incubator at 37° C. with 90% humidity for 4 days before being removed from the shell and placed in covered dishes and incubated at 37° C. with 90% humidity until usage (PMID:20671724). On day 13 of embryonic development, 7.5×10^4 tumor cells in 100 μL PBS were intravenously injected into a vein within the chorioallantoic membrane (CAM, N=5 each group) (PMID-20671724). Prior to injection, cancer cells were pre-treated with HA (100 mg/ml) or vehicle (PBS) for 1 hour on ice. […] At least 200 cells for each ROI at T=0 was analyzed and enumerated.
Extravasated tumor cells can be observed in interstitial spaces 24-72 hrs after their injection into CAM veins but by this time cell bound F-HA is not detectable since it has been metabolized (FIG. 22B). To determine if F-HA promotes extravasation of dt-Tomato expressing tumor cells, we therefore simply measured the number of extravasated tumor cells at varying times after injection with or without unlabeled HA, used at the same concentration and polydispersity as F-HA, with intravial confocal imaging (FIG. 22C-D). […] We next determined if exposing tumor cells to HA increased extravasation, choosing 24 hrs after injection rather than 72 hrs shown in FIG. 22C to reduce the contribution of proliferation to appearance of extravascular tumor colonies. […]

[3] = Targeting of HA-based probes in response-to-injury model; assay type: in vivo, rat; conditions: radiolabel, magnetic resonance and fluorescence labels
Description: (§6) We evaluated the targeting ability of HA-based probes in several modalities (radiolabel, magnetic resonance, and fluorescence) to areas of microenvironment remodeling that are associated with both tissue injury and tumor formation. We chose well-characterized rat balloon injured carotid arteries as a response to injury model, and xenografts of MDA-MB-231 cells as a tumor model.

[4] = test system: xenografts of MDA-MB-231 cells; assay: Targeting of HA-based probes in tumor model; assay type: in vivo; conditions: radiolabel, magnetic resonance and fluorescence labels
Description: as §6

[5] = data obtained from Hyal Corporation, cited from earlier work
[6] = Table 1, HA probe binding/uptake

**Q.** For hyaluronan [HA], which HA binding (MCF-10A) is on record?
**A.** Medium

**Q.** And the HA binding (MCF-7)?
**A.** Low

**Q.** What about the HA binding (MDA-MB-231 [1]; [6]) of the same substance?
**A.** Very high

**Q.** What about the HA binding level (MDA-MB-231 [1]; Table 6) of the same substance?
**A.** HA^4+

**Q.** And the HA binding (S1)?
**A.** Medium

**Q.** What about the HA binding (SKBR-3; [6]) of the same substance?
**A.** Low

**Q.** What about the HA binding level (SKBR-3; Table 6) of the same substance?
**A.** HA^+

**Q.** What about the HA binding (T4-2; [6]) of the same substance?
**A.** High

**Q.** What about the HA binding level (T4-2; Table 6) of the same substance?
**A.** HA^2+

**Q.** What about the “effect on signal of HA probe uptake” value (MDA-MB-231 [2]) of the same substance?
**A.** reduced

**Q.** What about the “extravasation efficiency of tumor cells exposed to HA vs untreated cells” value (MDA-MB-231 tumor cells) of the same substance?
**A.** twice

**Q.** And the “targeting of HA-based probes to injured tissue” value [3]?
**A.** selective targeting

**Q.** And the “targeting of HA-based probes to tumor tissue” value [4]?
**A.** selective targeting

**Q.** What about the “tolerability of HA injected I.V.” value ([5]; I.V. 1-12 mg/kg) of the same substance?
**A.** well tolerated

**Q.** What about the “T½ from HA serum levels” value ([5]; I.V., 1.5 mg/kg dose) of the same substance?
**A.** 12 h

Reference: US20130157285A1, “IDENTIFICATION OF INVASIVE AND SLOW-GROWING TUMORIGENIC CELL SUBSETS IN TUMORS” (The Regents of the University of California, priority 2011, published 2013)
